Molecular target: T1, human full-length MKNK1 (Homo sapiens, UniProt Q9BUB5, T385D)
T1 construct: GST (N); purchased Carna Biosciences 02-145; host or cells: insect cells (baculovirus expression system)
Experiment: MKNK1 kinase high ATP assay (TR-FRET)
Format: biochemical
Conditions: 2 mM ATP, after preincubation with MKNK1; read-out: MKNK1 IC50 (MKNK1 high ATP)
Summary of the method: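 Compound was preincubated 15 min at 22° C. with MKNK1 in 50 mM HEPES pH 7.5, 5 mM MgCl2, 1.0 mM DTT, then the reaction ran 30 min at 22° C. with 2 mM ATP and 0.06 μM biotinylated peptide (final).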

T1 sequence (Q9BUB5 1-424 isoform Q9BUB5-2 T344D): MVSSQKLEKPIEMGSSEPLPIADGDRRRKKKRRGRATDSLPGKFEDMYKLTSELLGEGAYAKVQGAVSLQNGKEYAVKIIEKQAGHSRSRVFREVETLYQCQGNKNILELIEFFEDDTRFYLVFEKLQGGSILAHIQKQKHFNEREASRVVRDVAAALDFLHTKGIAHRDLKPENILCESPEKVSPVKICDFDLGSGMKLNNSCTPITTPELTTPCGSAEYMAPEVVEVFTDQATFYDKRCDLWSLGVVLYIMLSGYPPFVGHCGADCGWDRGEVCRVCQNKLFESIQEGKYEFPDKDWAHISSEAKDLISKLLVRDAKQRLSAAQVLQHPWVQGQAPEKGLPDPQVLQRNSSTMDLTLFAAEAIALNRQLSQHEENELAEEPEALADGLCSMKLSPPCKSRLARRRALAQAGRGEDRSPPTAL

SMILES | IC50
CN(C)C(=O)C1CCc2c(sc3ncnc(Nc4cc5cn[nH]c5cc4OCCCCl)c23)C1 (racemic) [Example 267, (RS)-4-{[6-(3-Chloropropoxy)-1H-indazol-5-yl]amino}-N,N-dimethyl-5,6,7,8-tetrahydro[1]benzothieno[2,3-d]pyrimidine-7-carboxamide] | 2.2 nM
CC(C)OC(=O)C1CCc2c(sc3ncnc(Nc4ccc5[nH]ncc5c4)c23)C1 (racemic) [Example 74, (RS)-Propan-2-yl 4-(1H-indazol-5-ylamino)-5,6,7,8-tetrahydro[1]benzothieno[2,3-d]pyrimidine-7-carboxylate] | 27.6 nM
CCCN(C)C(=O)C1CCc2c(sc3ncnc(Nc4cc5cn[nH]c5cc4OC)c23)C1 (stereo not drawn) [Example 68, 4-[(6-Methoxy-1H-indazol-5-yl)amino]-N-methyl-N-propyl-5,6,7,8-tetrahydro[1]benzothieno[2,3-d]pyrimidine-7-carboxamide] | 0.7 nM
CCOc1cc2[nH]ncc2cc1Nc1ncnc2sc3c(c12)CCC(C(=O)N1CC2(COC2)C1)C3 (racemic) [Example 239, (RS)-{4-[(6-Ethoxy-1H-indazol-5-yl)amino]-5,6,7,8-tetrahydro[1]benzothieno[2,3-d]pyrimidin-7-yl}(2-oxa-6-azaspiro[3.3]hept-6-yl)methanone] | 0.4 nM
COC(=O)C1CCc2c(sc3ncnc(Nc4ccc5[nH]ncc5c4)c23)C1 (racemic) [Example 73, (RS)-Methyl 4-(1H-indazol-5-ylamino)-5,6,7,8-tetrahydro[1]benzothieno[2,3-d]pyrimidine-7-carboxylate] | 8.9 nM
CCOC(=O)C1CCc2c(sc3ncnc(Nc4cc5cn[nH]c5cc4F)c23)C1 (stereo not drawn) [Example 54, Ethyl 4-[(6-fluoro-1H-indazol-5-yl)amino]-5,6,7,8-tetrahydro[1]benzothieno[2,3-d]pyrimidine-7-carboxylate] | 19 nM
COc1ccc(CNC(=O)C2CCc3c(sc4ncnc(Nc5ccc6[nH]ncc6c5)c34)C2)cc1 (stereo not drawn) [Example 30, 4-(1H-Indazol-5-ylamino)-N-(4-methoxybenzyl)-5,6,7,8-tetrahydro[1] benzothieno [2,3-d]pyrimidine-7-carboxamide] | 4 nM
O=C(C1CCc2c(sc3ncnc(Nc4ccc5[nH]ncc5c4)c23)C1)N1CCCCC1 (racemic) [Example 82, (RS)-[4-(1H-indazol-5-ylamino)-5,6,7,8-tetrahydro[1]benzothieno[2,3-d]pyrimidin-7-yl](piperidin-1-yl)methanone] | 14.6 nM
O=C(C1CCc2c(sc3ncnc(Nc4ccc5[nH]ncc5c4)c23)C1)N1CC(O)C1 (racemic) [Example 159, (RS)-(3-hydroxyazetidin-1-yl)[4-(1H-indazol-5-ylamino)-5,6,7,8-tetrahydro[1]benzothieno[2,3-d]pyrimidin-7-yl]methanone] | 14.4 nM
CCOc1cc2[nH]ncc2cc1Nc1ncnc2sc3c(c12)CCC(C(=O)N1CC2(CCS2(=O)=O)C1)C3 (racemic) [Example 263, (RS)-(1,1-Dioxido-1-thia-6-azaspiro[3.3]hept-6-yl){4-[(6-ethoxy-1H-indazol-5-yl)amino]-5,6,7,8-tetrahydro[1]benzothieno[2,3-d]pyrimidin-7-yl}methanone] | 3.3 nM
O=C(NCCc1cccs1)C1CCc2c(sc3ncnc(Nc4ccc5[nH]ncc5c4)c23)C1 (racemic) [Example 116, (RS)-4-(1H-indazol-5-ylamino)-N-[2-(thiophen-2-yl)ethyl]-5,6,7,8-tetrahydro[1]benzothieno[2,3-d]pyrimidine-7-carboxamide] | 5.8 nM
CN(C)C(=O)CN1CCN(C(=O)C2CCc3c(sc4ncnc(Nc5ccc6[nH]ncc6c5)c34)C2)CC1 (racemic) [Example 143, (RS)-2-(4-{[4-(1H-indazol-5-ylamino)-5,6,7,8-tetrahydro[1]benzothieno[2,3-d]pyrimidin-7-yl]carbonyl}piperazin-1-yl)-N,N-dimethylacetamide] | 19.5 nM
O=C(NCCN1CCCC1)C1CCc2c(sc3ncnc(Nc4ccc5[nH]ncc5c4)c23)C1 (racemic) [Example 98, (RS)-4-(1H-indazol-5-ylamino)-N-[2-(pyrrolidin-1-yl)ethyl]-5,6,7,8-tetrahydro[1]benzothieno[2,3-d]pyrimidine-7-carboxamide] | 8.1 nM
CN(C)CCCN(C)C(=O)C1CCc2c(sc3ncnc(Nc4ccc5[nH]ncc5c4)c23)C1 (racemic) [Example 96, (RS)-N-[3-(dimethylamino)propyl]-4-(1H-indazol-5-ylamino)-N-methyl-5,6,7,8-tetrahydro[1]benzothieno[2,3-d]pyrimidine-7-carboxamide] | 16.3 nM
CCOc1cc2[nH]ncc2cc1Nc1ncnc2sc3c(c12)CCC(C(=O)N1CCN2CCCCC2C1)C3 (racemic) [Example 270, {(7RS)-4-[(6-Ethoxy-1H-indazol-5-yl)amino]-5,6,7,8-tetrahydro[1]benzothieno[2,3-d]pyrimidin-7-yl}[(9aRS)-octahydro-2H-pyrido[1,2-a]pyrazin-2-yl]methanone] | 0.4 nM
Cn1cncc1CNC(=O)C1CCc2c(sc3ncnc(Nc4ccc5[nH]ncc5c4)c23)C1 (racemic) [Example 152, (RS)-4-(1H-indazol-5-ylamino)-N-[(1-methyl-1H-imidazol-5-yl)methyl]-5,6,7,8-tetrahydro[1]benzothieno[2,3-d]pyrimidine-7-carboxamide] | 16.8 nM
O=C(C1CCc2c(sc3ncnc(Nc4ccc5[nH]ncc5c4)c23)C1)N1CCCC1CO (racemic) [Example 186, (RS)-[2-(hydroxymethyl)pyrrolidin-1-yl][4-(1H-indazol-5-ylamino)-5,6,7,8-tetrahydro[1]benzothieno[2,3-d]pyrimidin-7-yl]methanone] | 40.6 nM
CN1CCCN(C(=O)C2CCc3c(sc4ncnc(Nc5ccc6[nH]ncc6c5)c34)C2)CC1 (racemic) [Example 118, (RS)-[4-(1H-indazol-5-ylamino)-5,6,7,8-tetrahydro[1]benzothieno[2,3-d]pyrimidin-7-yl](4-methyl-1,4-diazepan-1-yl)methanone] | 13.2 nM
O=C(NC1CCOCC1)C1CCc2c(sc3ncnc(Nc4ccc5[nH]ncc5c4)c23)C1 (racemic) [Example 123, (RS)-4-(1H-indazol-5-ylamino)-N-(tetrahydro-2H-pyran-4-yl)-5,6,7,8-tetrahydro[1]benzothieno[2,3-d]pyrimidine-7-carboxamide] | 11.3 nM
CCOc1cc2[nH]ncc2cc1Nc1ncnc2sc3c(c12)CCC(C(=O)N(C)CC(O)CO)C3 (racemic) [Example 257, (7RS)—N-[(2RS)-2,3-Dihydroxypropyl]-4-[(6-ethoxy-1H-indazol-5-yl)amino]-N-methyl-5,6,7,8-tetrahydro[1]benzothieno[2,3-d]pyrimidine-7-carboxamide] | 0.6 nM
O=C(NC1COC1)C1CCc2c(sc3ncnc(Nc4ccc5[nH]ncc5c4)c23)C1 (racemic) [Example 78, (RS)-4-(1H-Indazol-5-ylamino)-N-(oxetan-3-yl)-5,6,7,8-tetrahydro[1]benzothieno[2,3-d]pyrimidine-7-carboxamide] | 15.6 nM
O=C(Nc1ccnnc1)C1CCc2c(sc3ncnc(Nc4ccc5[nH]ncc5c4)c23)C1 (racemic) [Example 128, (RS)-4-(1H-indazol-5-ylamino)-N-(pyridazin-4-yl)-5,6,7,8-tetrahydro[1]benzothieno[2,3-d]pyrimidine-7-carboxamide] | 15 nM
CN(C)c1ccc(CNC(=O)C2CCc3c(sc4ncnc(Nc5ccc6[nH]ncc6c5)c34)C2)cc1 (stereo not drawn) [Example 34, N-[4-(Dimethylamino)benzyl]-4-(1H-indazol-5-ylamino)-5,6,7,8-tetrahydro[1] benzothieno [2,3-d]pyrimidine-7-carboxamide] | 5 nM
CC(C)(NC(=O)C1CCc2c(sc3ncnc(Nc4ccc5[nH]ncc5c4)c23)C1)c1ccc(F)cc1 (racemic) [Example 161, (RS)-N-[2-(4-fluorophenyl)propan-2-yl]-4-(1H-indazol-5-ylamino)-5,6,7,8-tetrahydro[1]benzothieno[2,3-d]pyrimidine-7-carboxamide] | 3.2 nM
CN(Cc1cccn1C)C(=O)C1CCc2c(sc3ncnc(Nc4ccc5[nH]ncc5c4)c23)C1 (racemic) [Example 163, (RS)-4-(1H-indazol-5-ylamino)-N-methyl-N-[(1-methyl-1H-pyrrol-2-yl)methyl]-5,6,7,8-tetrahydro[1]benzothieno[2,3-d]pyrimidine-7-carboxamide] | 12.4 nM
O=C(NCc1cc[nH]n1)C1CCc2c(sc3ncnc(Nc4ccc5[nH]ncc5c4)c23)C1 (racemic) [Example 139, (RS)-4-(1H-indazol-5-ylamino)-N-(1H-pyrazol-3-ylmethyl)-5,6,7,8-tetrahydro[1]benzothieno[2,3-d]pyrimidine-7-carboxamide] | 6.9 nM
COC(=O)N1CCN(C(=O)C2CCc3c(sc4ncnc(Nc5ccc6[nH]ncc6c5)c34)C2)CC1 (racemic) [Example 160, (RS)-methyl4-{[4-(1H-indazol-5-ylamino)-5,6,7,8-tetrahydro[1]benzothieno[2,3-d]pyrimidin-7-yl]carbonyl}piperazine-1-carboxylate] | 31.1 nM
